In ChEMBL document CHEMBL1132561, “Identification and characterization of m1 selective muscarinic receptor antagonists1” (J Med Chem, 1999):

Legend:
[1] = target: T1, Muscarinic acetylcholine receptor M2 (Homo sapiens, UniProt P08172); assay: biochemical; assay type: cell-based, CHO
T1 sequence (P08172 whole entry): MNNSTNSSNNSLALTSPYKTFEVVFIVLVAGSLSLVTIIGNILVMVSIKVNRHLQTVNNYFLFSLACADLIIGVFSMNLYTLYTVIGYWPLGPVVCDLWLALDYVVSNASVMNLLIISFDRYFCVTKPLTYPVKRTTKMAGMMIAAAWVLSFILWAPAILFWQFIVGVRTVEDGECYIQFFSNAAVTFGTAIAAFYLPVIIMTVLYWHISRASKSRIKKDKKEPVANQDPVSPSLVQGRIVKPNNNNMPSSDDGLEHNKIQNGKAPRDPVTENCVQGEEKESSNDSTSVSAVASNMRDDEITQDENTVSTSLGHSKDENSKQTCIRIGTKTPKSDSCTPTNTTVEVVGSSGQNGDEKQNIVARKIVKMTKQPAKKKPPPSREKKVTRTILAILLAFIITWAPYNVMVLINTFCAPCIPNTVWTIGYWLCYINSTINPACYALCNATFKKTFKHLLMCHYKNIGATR
Description: Displacement of [3H]NMS binding to human Muscarinic acetylcholine receptor M2 using membranes from transfected CHO cells

[2] = target: T2, Muscarinic acetylcholine receptor M4 (Homo sapiens, UniProt P08173); assay: biochemical; assay type: cell-based, CHO
T2 sequence (P08173 whole entry): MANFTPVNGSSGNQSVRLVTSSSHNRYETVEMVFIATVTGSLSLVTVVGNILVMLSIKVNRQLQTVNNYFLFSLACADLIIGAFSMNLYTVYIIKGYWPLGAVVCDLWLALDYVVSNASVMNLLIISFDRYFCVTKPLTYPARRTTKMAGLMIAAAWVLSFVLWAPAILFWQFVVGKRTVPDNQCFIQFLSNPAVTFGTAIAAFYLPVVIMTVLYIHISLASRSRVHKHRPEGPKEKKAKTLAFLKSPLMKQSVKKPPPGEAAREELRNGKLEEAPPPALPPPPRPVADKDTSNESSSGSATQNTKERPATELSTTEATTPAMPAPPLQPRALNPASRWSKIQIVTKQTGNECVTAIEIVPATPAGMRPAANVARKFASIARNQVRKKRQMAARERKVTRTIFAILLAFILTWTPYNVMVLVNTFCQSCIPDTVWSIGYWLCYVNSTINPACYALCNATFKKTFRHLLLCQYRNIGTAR
Description: Displacement of [3H]NMS binding to human Muscarinic acetylcholine receptor M4 using membranes from transfected CHO cells

Row | SMILES | IC50 [1] [nM] | IC50 [2] [nM]
1 | CCCCCCOC(=O)[C@H]1CN(CC)CC[C@H]1c1ccccc1 | 405 | 573
2 | CCN1CC=C(c2ccccc2)C(C(=O)OCc2ccccc2)C1 (configuration not stated) | 241 | 146
3 | CCN1CCC(c2ccccc2)=C(C(=O)OCCCc2ccccc2)C1 | 1040 | 1160
4 | CCN1CC=C(c2ccccc2)C(C(=O)OCCCc2ccccc2)C1 (configuration not stated) | 2210 | 1130
5 | CCN1CCC(c2ccccc2)=C(C(=O)OCC(c2ccccc2)c2ccccc2)C1 | 2570 | 7710
6 | CCCCCCCCOC(=O)C1=C(c2ccccc2)CCN(CC)C1 | 52.5 | 259
7 | CCN1CC=C(c2ccccc2)C(C(=O)OCC(c2ccccc2)c2ccccc2)C1 (configuration not stated) | 475 | 4160
8 | CCCCCCCCOC(=O)C1CN(CC)CC=C1c1ccccc1 (configuration not stated) | – | 1250
9 | CCN1CCC(c2ccccc2)=C(C(=O)OCc2ccccc2)C1 | 451 | 473
